The text below walks through data of patent US11773078B2, “Furin inhibitors” (Glaxosmithkline Intellectual Property Development Limited, priority 2018, dated 2023).

The target in test [1] is T1, furin (endogenous protease) in U20S cells (Homo sapiens, UniProt P09958).
T1 construct: the endogenous protease cleaves GFP; endogenous in cells; host or cells: U2OS cells transduced with a BacMam reporter
In words: Furin cell-based assay (image-based, Golgi-targeted GFP with BMP10 furin/PCSK cleavage site).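 Note: Read-out is mean GFP fluorescence of Golgi puncta per cell by high-content imaging, retained when furin inhibited, over an eleven-point 0.00017–10 µM series, four-parameter fit.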 The following applies: 24-hour incubation, read-out: furin golgi cell pXC50 (converted).

Test [2] deals with T2, Furin (108-574-Tev-Flag-His) enzyme (Homo sapiens, UniProt P09958).
T2 construct: Furin (108-574-Tev-Flag-His) enzyme was expressed and purified from CHO cells; TEV cleavage site (C); FLAG (C); His (C); made in house; host or cells: CHO cells
Description: Furin enzyme assay. It is filed as biochemical. The method in brief: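 Compounds ran as 11-point threefold dilutions (0.00017–10 μM final) against 40 pM furin, purified from CHO cells, for 2 h at room temperature. Buffer: 100 mM HEPES pH7.5 with 1 mM CaCl2 and 0.005% Triton X-100. Envision readout. Four-parameter curve gives pXC50.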

T1 sequence (P09958 108-794): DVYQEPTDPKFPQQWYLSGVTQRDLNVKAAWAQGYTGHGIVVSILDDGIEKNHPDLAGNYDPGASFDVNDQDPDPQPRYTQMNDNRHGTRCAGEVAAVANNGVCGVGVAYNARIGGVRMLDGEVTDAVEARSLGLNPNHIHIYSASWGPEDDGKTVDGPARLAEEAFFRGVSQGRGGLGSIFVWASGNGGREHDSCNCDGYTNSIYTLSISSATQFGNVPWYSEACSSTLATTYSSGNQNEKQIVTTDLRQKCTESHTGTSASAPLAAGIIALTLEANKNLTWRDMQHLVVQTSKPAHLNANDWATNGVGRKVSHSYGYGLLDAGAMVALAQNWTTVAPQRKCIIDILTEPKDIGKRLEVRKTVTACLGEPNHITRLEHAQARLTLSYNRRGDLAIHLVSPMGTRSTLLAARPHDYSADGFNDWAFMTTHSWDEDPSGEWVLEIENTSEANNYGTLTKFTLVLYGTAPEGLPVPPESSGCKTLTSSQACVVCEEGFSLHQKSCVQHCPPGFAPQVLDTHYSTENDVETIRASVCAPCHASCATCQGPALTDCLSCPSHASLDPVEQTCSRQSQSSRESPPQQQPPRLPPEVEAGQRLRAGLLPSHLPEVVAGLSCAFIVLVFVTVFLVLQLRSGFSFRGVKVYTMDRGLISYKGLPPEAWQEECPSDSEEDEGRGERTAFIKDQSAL
T2 sequence (P09958 108-574): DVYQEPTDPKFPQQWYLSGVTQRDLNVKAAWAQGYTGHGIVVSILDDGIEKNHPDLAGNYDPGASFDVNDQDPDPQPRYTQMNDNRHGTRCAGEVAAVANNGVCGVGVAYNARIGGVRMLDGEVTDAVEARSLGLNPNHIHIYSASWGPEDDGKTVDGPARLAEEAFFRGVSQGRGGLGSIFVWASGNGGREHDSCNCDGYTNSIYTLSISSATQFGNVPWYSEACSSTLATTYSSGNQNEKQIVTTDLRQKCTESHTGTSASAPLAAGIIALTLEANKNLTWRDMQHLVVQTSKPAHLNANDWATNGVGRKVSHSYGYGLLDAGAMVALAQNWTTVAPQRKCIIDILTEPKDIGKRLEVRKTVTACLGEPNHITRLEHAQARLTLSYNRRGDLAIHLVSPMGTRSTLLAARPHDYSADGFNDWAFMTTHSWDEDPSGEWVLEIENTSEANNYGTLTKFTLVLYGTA

On to `CN1CCN(c2ncc(Oc3cc(CN4CCC(CC(=O)O)CC4)cc(-c4cc(Cl)cc(Cl)c4)n3)cc2F)CC1` [Example 151, 2-(1-((2-(3,5-dichlorophenyl)-6-((5-fluoro-6-(4-methylpiperazin-1-yl)pyridin-3-yl)oxy)pyridin-4-yl)methyl)piperidin-4-yl)acetic acid], for which the EC50 in test [1] is 100 nM. Besides, the “furin enzyme pIC50” value in test [2] is given as 8.2.

As for `CN1CCN(c2ncc(Oc3cc(CN4CCO[C@H](CCO)CC4)cc(-c4cc(Cl)cc(Cl)c4)n3)cn2)CC1` [Example 153, (S)-2-(4-((2-(3,5-dichlorophenyl)-6-((2-(4-methylpiperazin-1-yl)pyrimidin-5-yl)oxy)pyridin-4-yl)methyl)-1,4-oxazepan-7-yl)ethanol], the EC50 in test [1] was 15.8 nM. Moreover, the “furin enzyme pIC50” value in test [2] came to 7.9.

Regarding `CC(=O)N[C@@H]1[C@@H]2CN(Cc3cc(Oc4cnc(N5CCCN(C)CC5)nc4)nc(-c4cc(Cl)cc(Cl)c4)c3)C[C@@H]21` [Example 154, N-((1R,5S,6r)-3-((2-(3,5-dichlorophenyl)-6-((2-(4-methyl-1,4-diazepan-1-yl)pyrimidin-5-yl)oxy)pyridin-4-yl)methyl)-3-azabicyclo[3.1.0]hexan-6-yl)acetamide], in test [1], the EC50 was 50.1 nM. The “furin enzyme pIC50” value in test [2] is given as 7.8.

Consider `CC(=O)CC1CCN(Cc2cc(Oc3cnc(N4CCN(C)CC4)nc3)nc(-c3cc(Cl)cc(Cl)c3)c2)CC1` [Example 155, 1-(1-((2-(3,5-dichlorophenyl)-6-((2-(4-methylpiperazin-1-yl)pyrimidin-5-yl)oxy)pyridin-4-yl)methyl)piperidin-4-yl)propan-2-one], for which the EC50 in test [1] was 15.8 nM. For the same compound, the “furin enzyme pIC50” value in test [2] amounted to 8.1.

Turning to `CN1CCCN(c2ccc(Oc3cc(CN4CCC(CC(=O)O)CC4)cc(-c4cc(Cl)cc(Cl)c4)n3)cn2)CC1` [Example 156, 2-(1-((2-(3,5-Dichlorophenyl)-6-((6-(4-methyl-1,4-diazepan-1-yl)pyridin-3-yl)oxy)pyridin-4-yl)methyl)piperidin-4-yl)acetic acid], the EC50 in test [1] is 15.8 nM. Besides, the “furin enzyme pIC50” value in test [2] is given as 8.8.

Regarding `CC(=O)NCC1CCN(Cc2cc(Oc3ccc(N4CCN(C)CC4)nn3)nc(-c3cc(Cl)cc(Cl)c3)c2)CC1` [Example 157, N-((1-((2-(3,5-dichlorophenyl)-6-((6-(4-methylpiperazin-1-yl)pyridazin-3-yl)oxy)pyridin-4-yl)methyl)piperidin-4-yl)methyl)acetamide], the EC50 in test [1] is 1.26 nM. In addition, the “furin enzyme pIC50” value in test [2] came to 10.8.

Turning to `NC1CCN(c2ncc(Oc3cc(CN4CCC(CC(=O)O)CC4)cc(-c4cc(Cl)cc(Cl)c4)n3)cn2)CC1` [Example 158, 2-(1-((2-((2-(4-Aminopiperidin-1-yl)pyrimidin-5-yl)oxy)-6-(3,5-dichlorophenyl)pyridin-4-yl)methyl)piperidin-4-yl)acetic acid], the EC50 in test [1] is 79.4 nM. For the same compound, the “furin enzyme pIC50” value in test [2] stood at 8.8.

For `C[C@H]1CN(c2ncc(Oc3cc(CN4CCC(CC(=O)O)CC4)cc(-c4cc(Cl)cc(Cl)c4)n3)cn2)CCN1` [Example 159, (S)-2-(1-((2-(3,5-Dichlorophenyl)-6-((2-(3-methylpiperazin-1-yl)pyrimidin-5-yl)oxy)pyridin-4-yl)methyl)piperidin-4-yl)acetic acid], in test [1], the EC50 is 25.1 nM. Also, the “furin enzyme pIC50” value in test [2] is listed as 8.5.

Regarding `CC1(C)CN(c2ncc(Oc3cc(CN4CCC(CC(=O)O)CC4)cc(-c4cc(Cl)cc(Cl)c4)n3)cn2)CCN1` [Example 160, 2-(1-((2-(3,5-dichlorophenyl)-6-((2-(3,3-dimethylpiperazin-1-yl)pyrimidin-5-yl)oxy)pyridin-4-yl)methyl)piperidin-4-yl)acetic acid], the EC50 in test [1] is 25.1 nM. Also, the “furin enzyme pIC50” value in test [2] amounted to 8.8.
